What was measured:
[1] = Retardation factor of the compound using hexane/ethanol/TEA at ratio of 7:2:1 as solvent system by thin layer chromatography; assay type: physicochemical
GABA transporter 2 = molecular target: T1, GABA transporter 2 (Mus musculus, UniProt P31651); test: Inhibition of mouse GAT2 expressed in HEK293 cells assessed as decrease in [3H]GABA uptake; assay type: cell-based
T1 sequence (P31651 whole entry): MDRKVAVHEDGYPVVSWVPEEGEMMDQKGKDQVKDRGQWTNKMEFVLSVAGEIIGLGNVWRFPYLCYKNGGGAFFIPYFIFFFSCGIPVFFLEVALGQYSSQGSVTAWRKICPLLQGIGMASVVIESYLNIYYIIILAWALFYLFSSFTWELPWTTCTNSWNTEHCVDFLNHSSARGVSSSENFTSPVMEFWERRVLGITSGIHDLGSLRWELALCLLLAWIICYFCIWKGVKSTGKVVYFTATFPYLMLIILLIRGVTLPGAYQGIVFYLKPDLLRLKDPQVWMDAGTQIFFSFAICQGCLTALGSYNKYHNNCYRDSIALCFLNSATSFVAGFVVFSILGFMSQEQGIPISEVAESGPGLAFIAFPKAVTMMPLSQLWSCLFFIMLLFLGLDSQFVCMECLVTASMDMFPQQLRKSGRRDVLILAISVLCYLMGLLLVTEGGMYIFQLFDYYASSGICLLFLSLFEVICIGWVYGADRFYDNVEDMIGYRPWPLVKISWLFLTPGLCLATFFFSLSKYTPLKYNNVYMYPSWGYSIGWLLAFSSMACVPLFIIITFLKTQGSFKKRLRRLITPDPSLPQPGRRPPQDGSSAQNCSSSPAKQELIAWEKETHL

GABA transporter 4 = molecular target: T2, GABA transporter 4 (Mus musculus, UniProt P31650); test: Inhibition of mouse GAT4 expressed in HEK293 cells assessed as decrease in [3H]GABA uptake; assay type: cell-based
T2 sequence (P31650 whole entry): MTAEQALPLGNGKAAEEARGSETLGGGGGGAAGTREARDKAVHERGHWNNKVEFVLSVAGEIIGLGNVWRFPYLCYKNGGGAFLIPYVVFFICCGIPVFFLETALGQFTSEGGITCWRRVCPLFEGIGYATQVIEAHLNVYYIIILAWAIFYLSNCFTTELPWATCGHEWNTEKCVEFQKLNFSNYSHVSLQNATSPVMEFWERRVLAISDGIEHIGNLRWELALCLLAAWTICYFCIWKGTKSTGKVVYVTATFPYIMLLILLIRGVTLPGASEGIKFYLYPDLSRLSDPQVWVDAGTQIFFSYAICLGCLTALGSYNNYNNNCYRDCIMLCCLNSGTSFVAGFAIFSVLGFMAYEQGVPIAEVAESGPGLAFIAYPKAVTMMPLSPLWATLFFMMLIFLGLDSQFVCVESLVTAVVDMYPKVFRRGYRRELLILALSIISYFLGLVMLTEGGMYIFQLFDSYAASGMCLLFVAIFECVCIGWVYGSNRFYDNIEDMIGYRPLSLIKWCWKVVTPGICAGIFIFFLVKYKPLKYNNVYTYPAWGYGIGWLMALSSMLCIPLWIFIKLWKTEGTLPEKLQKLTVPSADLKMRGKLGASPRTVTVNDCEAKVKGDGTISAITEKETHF

[2] = molecular target: T3, Sodium- and chloride-dependent GABA transporter 1 (Mus musculus, UniProt P31648); test: Displacement of NO711 from mouse GAT1 expressed in HEK293 cells by LC-MS/MS analysis; assay type: cell-based
[3] = molecular target: T3, Sodium- and chloride-dependent GABA transporter 1; test: Inhibition of mouse GAT1 expressed in HEK293 cells assessed as decrease in [3H]GABA uptake; assay type: cell-based
GABA transporter 3 = molecular target: T4, GABA transporter 3 (Mus musculus, UniProt P31649); test: Inhibition of mouse GAT3 expressed in HEK293 cells assessed as decrease in [3H]GABA uptake; assay type: cell-based
T4 sequence (P31649 whole entry): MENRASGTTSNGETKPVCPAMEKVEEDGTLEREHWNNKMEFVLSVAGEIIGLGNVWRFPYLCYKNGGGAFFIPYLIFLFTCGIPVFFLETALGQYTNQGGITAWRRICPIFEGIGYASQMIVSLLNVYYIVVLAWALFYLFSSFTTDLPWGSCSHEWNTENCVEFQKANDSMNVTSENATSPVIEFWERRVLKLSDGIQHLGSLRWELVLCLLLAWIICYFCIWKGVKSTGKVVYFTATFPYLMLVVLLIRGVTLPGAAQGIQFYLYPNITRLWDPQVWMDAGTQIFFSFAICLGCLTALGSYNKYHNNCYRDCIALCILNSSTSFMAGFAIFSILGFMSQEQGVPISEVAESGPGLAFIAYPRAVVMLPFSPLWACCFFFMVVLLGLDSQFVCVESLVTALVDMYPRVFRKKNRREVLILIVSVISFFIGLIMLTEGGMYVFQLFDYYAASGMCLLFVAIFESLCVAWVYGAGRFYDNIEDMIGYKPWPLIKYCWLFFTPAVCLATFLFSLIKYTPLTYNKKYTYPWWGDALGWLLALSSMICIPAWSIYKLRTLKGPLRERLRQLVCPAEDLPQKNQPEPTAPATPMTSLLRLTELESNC

[4] = Retardation factor of the compound using 25%NH3/MeOH/DCM/PE at ratio of 45:225:600:90 as solvent system by thin layer chromatography; assay type: physicochemical

SMILES | Rf [1] | IC50 (GABA transporter 2) | IC50 (GABA transporter 4) | Ki [2] | IC50 [3] | IC50 (GABA transporter 3) | Rf [4]
CN(CCCC(c1ccccc1)c1ccccc1)C(CCN)C(=O)NCc1ccccc1Cl (configuration not stated) | 0.15 | 7.76 µM | 11.5 µM | 21.4 µM | 12.6 µM | 19.1 µM | –
Cc1ccc(CNC(=O)C(CCN)N(C)CCC=C(c2ccccc2)c2ccccc2)cc1 (configuration not stated) | – | 9.55 µM | 9.77 µM | 9.12 µM | 8.51 µM | 12 µM | 0.84
CN(CCCC(c1ccccc1)c1ccccc1)C(CCN)C(=O)NCc1ccc(Cl)cc1 (configuration not stated) | 0.1 | 17.4 µM | 14.5 µM | 17.8 µM | 17.4 µM | 21.4 µM | –
CN(CCC=C(c1ccccc1)c1ccccc1)C(CCN)C(=O)NCc1ccc(F)cc1 (configuration not stated) | – | 12.9 µM | 12.6 µM | 15.8 µM | 13.8 µM | 11 µM | 0.79
NCCC(NCCC=C(c1ccccc1)c1ccccc1)C(=O)NCc1ccccc1 (configuration not stated) | 0.16 | 7.94 µM | 25.7 µM | 17.4 µM | 30.9 µM | 33.1 µM | –
CN(CCC=C(c1ccccc1)c1ccccc1)C(CCN)C(=O)NCc1ccccc1 (configuration not stated) | – | 12 µM | 15.8 µM | 12.6 µM | 18.6 µM | 24 µM | 0.74
CN(CCC=C(c1ccccc1)c1ccccc1)C(CCN)C(=O)NCc1ccccc1Cl (configuration not stated) | – | 6.46 µM | 9.12 µM | 11 µM | 12.9 µM | 10 µM | 0.76
NCCC(C(=O)NCc1ccc(Cl)cc1)N1CCC(C(c2ccccc2)c2ccccc2)CC1 (configuration not stated) | – | 9.77 µM | 10.2 µM | 30.2 µM | 11.2 µM | 9.55 µM | 0.77
NCCC(C(=O)NCc1ccc(Cl)cc1)N1CCC(=C(c2ccccc2)c2ccccc2)CC1 (configuration not stated) | – | 10.5 µM | 12 µM | 24 µM | 11 µM | 12.9 µM | 0.8
Cc1ccc(CNC(=O)C(CCN)N2CCC(=C(c3ccccc3)c3ccccc3)CC2)cc1 (configuration not stated) | – | 5.89 µM | 11.5 µM | 29.5 µM | 11.2 µM | 16.2 µM | 0.73
CN(CCC=C(c1ccccc1)c1ccccc1)C(CCN)C(=O)NCc1ccc(Cl)cc1 (configuration not stated) | – | 9.77 µM | 12.6 µM | 11.2 µM | 12.9 µM | 11.2 µM | 0.73
Cc1ccc(CNC(=O)C(CCN)N2CCC(C(c3ccccc3)c3ccccc3)CC2)cc1 (configuration not stated) | – | 7.94 µM | 7.41 µM | 16.6 µM | 13.2 µM | 14.5 µM | 0.92
NCCC(C(=O)NCc1ccccc1Cl)N1CCC(C(c2ccccc2)c2ccccc2)CC1 (configuration not stated) | – | 5.89 µM | 10.2 µM | 25.7 µM | 13.8 µM | 11 µM | 0.79
NCCC(C(=O)NCc1ccc(F)cc1)N1CCC(C(c2ccccc2)c2ccccc2)CC1 (configuration not stated) | – | 9.33 µM | 8.51 µM | 33.9 µM | 15.8 µM | 21.4 µM | 0.9
NCCC(NCCC=C(c1ccccc1)c1ccccc1)C(=O)NCc1ccc(Cl)cc1 (configuration not stated) | 0.14 | 9.55 µM | 11.7 µM | 16.2 µM | 16.6 µM | 17.8 µM | –
Cc1ccc(CNC(=O)C(CCN)N2CCN(C(c3ccccc3)c3ccccc3)CC2)cc1 (configuration not stated) | – | 30.2 µM | 23.4 µM | 63.1 µM | 28.2 µM | 18.2 µM | 0.18
NCCC(C(=O)NCc1ccccc1)N1CCC(C(c2ccccc2)c2ccccc2)CC1 (configuration not stated) | – | 12 µM | 20 µM | 32.4 µM | 19.5 µM | 20.4 µM | 0.92
NCCC(C(=O)NCc1ccccc1Cl)N1CCC(=C(c2ccccc2)c2ccccc2)CC1 (configuration not stated) | – | 10.2 µM | 11 µM | 10.5 µM | 13.5 µM | 15.5 µM | 0.78
NCCC(C(=O)NCc1ccc(F)cc1)N1CCN(C(c2ccccc2)c2ccccc2)CC1 (configuration not stated) | – | 30.9 µM | 37.2 µM | 66.1 µM | 23.4 µM | 33.9 µM | 0.12
NCCC(C(=O)NCc1ccc(F)cc1)N1CCC(=C(c2ccccc2)c2ccccc2)CC1 (configuration not stated) | – | 10.2 µM | 13.5 µM | 25.1 µM | 11 µM | 12.3 µM | 0.77
NCCC(NCCC=C(c1ccccc1)c1ccccc1)C(=O)NCc1ccc(F)cc1 (configuration not stated) | 0.15 | 12 µM | 31.6 µM | 22.9 µM | 27.5 µM | 24.5 µM | –
NCCC(C(=O)NCc1ccccc1)N1CCC(=C(c2ccccc2)c2ccccc2)CC1 (configuration not stated) | – | 15.5 µM | 12 µM | 16.6 µM | 11 µM | 13.8 µM | 0.74

Reference: ChEMBL document CHEMBL3286252, “Synthesis, biological evaluation and structure-activity relationship of new GABA uptake inhibitors, derivatives of 4-aminobutanamides” (Eur J Med Chem, 2014)
